Each block holds one molecule with its values, some of them ahead of it.
How the values were obtained:
[1] = target: human JAK1 (a.a. 837-1142) (Homo sapiens, UniProt P23458); assay: In vitro JAK kinase assay (HTRF), JAK1; type: biochemical; settings: 1 mM ATP
[2] = tested on: human JAK1 (a.a. 837-1142); assay: In vitro JAK kinase assay (HTRF), JAK1; type: biochemical; settings: IC50 ratio at 1 mM ATP
[3] = tested on: Transformed human keratinocyte (HaCaT) cells stimulated with TNFα and IFNγ; assay: JAK inhibitors in TNFα/IFNγ stimulated keratinocytes, gene expression (QuantiGene Plex); settings: 24 hours, normalized to HPRT1, mean ± standard error
[4] = tested on: Transformed human keratinocyte (HaCaT) cells stimulated with TNFα and IFNγ; assay: JAK inhibitors in TNFα/IFNγ stimulated keratinocytes, inflammatory mediators in media (ProCarta Multiplex Immunoassay); settings: mean ± 1 standard error
[5] = TNFα (25 ng/mL) and IFNγ (25 ng/mL), drug 25 nM
[6] = TNFα (25 ng/mL) and IFNγ (25 ng/mL), drug 50 nM
[7] = TNFα (25 ng/mL) and IFNγ (25 ng/mL), drug 100 nM
[8] = TNFα (25 ng/mL) and IFNγ (25 ng/mL), drug 200 nM
[9] = TNFα (25 ng/mL) and IFNγ (25 ng/mL) stimulation, drug 25 nM
[10] = TNFα (25 ng/mL) and IFNγ (25 ng/mL) stimulation, drug 50 nM
[11] = TNFα (25 ng/mL) and IFNγ (25 ng/mL) stimulation, drug 100 nM
[12] = TNFα (25 ng/mL) and IFNγ (25 ng/mL) stimulation, drug 200 nM

IC50 [1]: < 10 nM
JAK2/JAK1 [2]: >10
Compound: N#CC[C@]1(n2cc(-c3ncnc4[nH]ccc34)cn2)C[C@H](N2CCN(C(=O)c3ccnc(C(F)(F)F)n3)CC2)C1 [Compound 10, [trans-1-[4-(7H-pyrrolo[2,3-d]pyrimidin-4-yl)-1H-pyrazol-1-yl]-3-(4-{[2-(trifluoromethyl)pyrimidin-4-yl]carbonyl}piperazin-1-yl)cyclobutyl]acetonitrile]

IC50 [1]: < 10 nM
JAK2/JAK1 [2]: >10
Compound: N#CC[C@]1(n2cc(-c3ncnc4[nH]ccc34)cn2)C[C@H](N2CCC(Oc3cc(CN4CCC[C@H]4CO)cc(C(F)(F)F)n3)CC2)C1 [Compound 12, {trans-3-(4-{[4-{[(2S)-2-(hydroxymethyl)pyrrolidin-1-yl]methyl}-6-(trifluoromethyl)pyridin-2-yl]oxy}piperidin-1-yl)-1-[4-(7H-pyrrolo[2,3-d]pyrimidin-4-yl)-1H-pyrazol-1-yl]cyclobutyl}acetonitrile]

IC50 [1]: < 10 nM
JAK2/JAK1 [2]: >10
Compound: N#CCC(C1CCN(c2nc3cccnc3o2)C1)n1cc(-c2ncnc3[nH]ccc23)cn1 (centres unmarked) [Compound 7, 3-(1-[1,3]oxazolo[5,4-b]pyridin-2-ylpyrrolidin-3-yl)-3-[4-(7H-pyrrolo[2,3-d]pyrimidin-4-yl)-1H-pyrazol-1-yl]propanenitrile]

IC50 [1]: < 10 nM
JAK2/JAK1 [2]: >10
Compound: N#CCC1(n2cc(-c3ncnc4[nH]ccc34)cn2)CN(C2CCN(C(=O)c3ccnc(C(F)(F)F)n3)CC2)C1 [Compound 3, [3-[4-(7H-pyrrolo[2,3-d]pyrimidin-4-yl)-1H-pyrazol-1-yl]-1-(1-{[2-(trifluoromethyl)pyrimidin-4-yl]carbonyl}piperidin-4-yl)azetidin-3-yl]acetonitrile]

The remaining lines, values behind:

Compound: C[C@H](NC(=O)c1cc(F)c(N2CC(CC#N)(n3cc(-c4ncnc5[nH]ccc45)cn3)C2)cc1F)C(F)(F)F [Compound 16, 4-{3-(cyanomethyl)-3-[4-(7H-pyrrolo[2,3-d]pyrimidin-4-yl)-1H-pyrazol-1-yl]azetidin-1-yl}-2,5-difluoro-N-[(1S)-2,2,2-trifluoro-1-methylethyl]benzamide]
IC50 [1]: < 10 nM
JAK2/JAK1 [2]: >10

Compound: N#CCC1(n2cc(-c3ncnc4[nH]ccc34)cn2)CN([C@H]2CC[C@@H](Oc3cc(CCO)nc(C(F)(F)F)n3)CC2)C1 [Compound 18, {1-(cis-4-{[6-(2-hydroxyethyl)-2-(trifluoromethyl)pyrimidin-4-yl]oxy}cyclohexyl)-3-[4-(7H-pyrrolo[2,3-d]pyrimidin-4-yl)-1H-pyrazol-1-yl]azetidin-3-yl}acetonitrile]
IC50 [1]: < 10 nM
JAK2/JAK1 [2]: >10

Compound: CCNCc1cc(O[C@H]2CC[C@@H](N3CC(CC#N)(n4cc(-c5ncnc6[nH]ccc56)cn4)C3)CC2)nc(C(F)(F)F)c1 [Compound 19, {1-(cis-4-{[4-[(ethylamino)methyl]-6-(trifluoromethyl)pyridin-2-yl]oxy}cyclohexyl)-3-[4-(7H-pyrrolo[2,3-d]pyrimidin-4-yl)-1H-pyrazol-1-yl]azetidin-3-yl}acetonitrile]
IC50 [1]: < 10 nM
JAK2/JAK1 [2]: >10

Compound: C[C@@H](CO)NCc1cc(OC2CCN([C@H]3C[C@](CC#N)(n4cc(-c5ncnc6[nH]ccc56)cn4)C3)CC2)nc(C(F)(F)F)c1 [Compound 23, {trans-3-(4-{[4-({[(1S)-2-hydroxy-1-methylethyl]amino}methyl)-6-(trifluoromethyl)pyridin-2-yl]oxy}piperidin-1-yl)-1-[4-(7H-pyrrolo[2,3-d]pyrimidin-4-yl)-1H-pyrazol-1-yl]cyclobutyl}acetonitrile]
IC50 [1]: < 10 nM
JAK2/JAK1 [2]: >10

Compound: N#CCC1(n2cc(-c3ncnc4[nH]ccc34)cn2)CN([C@H]2CC[C@@H](Oc3cc(CN4CC[C@H](O)C4)cc(C(F)(F)F)n3)CC2)C1 [Compound 22, {1-(cis-4-{[4-{[(3S)-3-hydroxypyrrolidin-1-yl]methyl}-6-(trifluoromethyl)pyridin-2-yl]oxy}cyclohexyl)-3-[4-(7H-pyrrolo[2,3-d]pyrimidin-4-yl)-1H-pyrazol-1-yl]azetidin-3-yl}acetonitrile]
IC50 [1]: < 10 nM
JAK2/JAK1 [2]: >10

Compound: C[C@@H](O)CNCc1cc(OC2CCN([C@H]3C[C@](CC#N)(n4cc(-c5ncnc6[nH]ccc56)cn4)C3)CC2)nc(C(F)(F)F)c1 [Compound 24, {trans-3-(4-{[4-({[(2R)-2-hydroxypropyl]amino}methyl)-6-(trifluoromethyl)pyridin-2-yl]oxy}piperidin-1-yl)-1-[4-(7H-pyrrolo[2,3-d]pyrimidin-4-yl)-1H-pyrazol-1-yl]cyclobutyl}acetonitrile]
IC50 [1]: < 10 nM
JAK2/JAK1 [2]: >10

Compound: N#CC[C@]1(n2cc(-c3ncnc4[nH]ccc34)cn2)C[C@H](N2CCC(Oc3cc(CN4CCC[C@@H]4CO)cc(C(F)(F)F)n3)CC2)C1 [Compound 13, {trans-3-(4-{[4-{[(2R)-2-(hydroxymethyl)pyrrolidin-1-yl]methyl}-6-(trifluoromethyl)pyridin-2-yl]oxy}piperidin-1-yl)-1-[4-(7H-pyrrolo[2,3-d]pyrimidin-4-yl)-1H-pyrazol-1-yl]cyclobutyl}acetonitrile]
IC50 [1]: < 10 nM
JAK2/JAK1 [2]: >10

Compound: N#CC[C@]1(n2cc(-c3ncnc4[nH]ccc34)cn2)C[C@H](N2CCC(Oc3cc(CN4CC(O)C4)cc(C(F)(F)F)n3)CC2)C1 [Compound 11, {trans-3-(4-{[4-[(3-hydroxyazetidin-1-yl)methyl]-6-(trifluoromethyl)pyridin-2-yl]oxy}piperidin-1-yl)-1-[4-(7H-pyrrolo[2,3-d]pyrimidin-4-yl)-1H-pyrazol-1-yl]cyclobutyl}acetonitrile]
IC50 [1]: < 10 nM
JAK2/JAK1 [2]: >10

Compound: Cc1n[nH]c(C)c1-c1cnn(C2(CC#N)CN(c3cc(F)c(C(=O)N[C@@H](C)C(F)(F)F)cc3F)C2)c1 [Compound 4]
IL-1α MFI [3, 5]: 1370.52 ± 35.28
IL-6 MFI [3, 5]: 135.32 ± 3.36
JAK1 MFI [3, 5]: 206.29 ± 6.84
JAK2 MFI [3, 5]: 114.94 ± 2.16
JAK3 MFI [3, 5]: 1.02 ± 0.19
STAT1 MFI [3, 5]: 3111.17 ± 182.20
STAT3 MFI [3, 5]: 1557.84 ± 58.15
STAT4 MFI [3, 5]: 5.65 ± 0.44
STAT5A MFI [3, 5]: 22.82 ± 1.77
STAT6 MFI [3, 5]: 1020.89 ± 23.57
TYK2 MFI [3, 5]: 283.97 ± 8.59
IL-1α MFI [3, 6]: 1308.7 ± 45.12
IL-6 MFI [3, 6]: 128.14 ± 6.83
JAK1 MFI [3, 6]: 194.2 ± 8.24
JAK2 MFI [3, 6]: 107.16 ± 2.86
JAK3 MFI [3, 6]: 0.99 ± 0.16
STAT1 MFI [3, 6]: 3058.64 ± 154.86
STAT3 MFI [3, 6]: 1519.61 ± 69.92
STAT4 MFI [3, 6]: 5.41 ± 0.33
STAT5A MFI [3, 6]: 20.71 ± 1.77
STAT6 MFI [3, 6]: 982.62 ± 14.34
TYK2 MFI [3, 6]: 273.68 ± 7.44
IL-1α MFI [3, 7]: 1194.29 ± 12.27
IL-6 MFI [3, 7]: 112.13 ± 3.37
JAK1 MFI [3, 7]: 193.28 ± 4.55
JAK2 MFI [3, 7]: 95.51 ± 3.13
JAK3 MFI [3, 7]: 0.99 ± 0.15
STAT1 MFI [3, 7]: 3035.33 ± 122.14
STAT3 MFI [3, 7]: 1457.24 ± 54.48
STAT4 MFI [3, 7]: 5.32 ± 0.46
STAT5A MFI [3, 7]: 18.44 ± 1.85
STAT6 MFI [3, 7]: 943.66 ± 25.99
TYK2 MFI [3, 7]: 266 ± 6.82
IL-1α MFI [3, 8]: 1151.31 ± 20.01
IL-6 MFI [3, 8]: 101.17 ± 2.91
JAK1 MFI [3, 8]: 182.86 ± 4.07
JAK2 MFI [3, 8]: 91.17 ± 2.15
JAK3 MFI [3, 8]: 0.85 ± 0.15
STAT1 MFI [3, 8]: 2984.14 ± 163.4
STAT3 MFI [3, 8]: 1483.1 ± 51.73
STAT4 MFI [3, 8]: 5.04 ± 0.36
STAT5A MFI [3, 8]: 17.64 ± 1.46
STAT6 MFI [3, 8]: 966.51 ± 12.3
TYK2 MFI [3, 8]: 263.49 ± 5.05
IL-1α MFI ([3]; no stimulation, drug 200 nM): 88.72 ± 5.90
IL-6 MFI ([3]; no stimulation, drug 200 nM): 4.98 ± 0.28
JAK1 MFI ([3]; no stimulation, drug 200 nM): 177.67 ± 11.84
JAK2 MFI ([3]; no stimulation, drug 200 nM): 25.25 ± 1.04
JAK3 MFI ([3]; no stimulation, drug 200 nM): 0.68 ± 0.17
STAT1 MFI ([3]; no stimulation, drug 200 nM): 554.39 ± 11.80
STAT3 MFI ([3]; no stimulation, drug 200 nM): 746.17 ± 16.73
STAT4 MFI ([3]; no stimulation, drug 200 nM): 4.28 ± 0.61
STAT5A MFI ([3]; no stimulation, drug 200 nM): 1.75 ± 0.44
STAT6 MFI ([3]; no stimulation, drug 200 nM): 762.04 ± 9.44
TYK2 MFI ([3]; no stimulation, drug 200 nM): 217.28 ± 14.28
IL-1α concentration in media [4, 9]: 7.74 ± 0.36 pg/mL
IL-6 concentration in media [4, 9]: 774.87 ± 31.09 pg/mL
IP-10/CXCL10 concentration in media [4, 9]: 3999.39 ± 370.53 pg/mL
MIP1α concentration in media [4, 9]: 101.71 ± 3.84 pg/mL
RANTES concentration in media [4, 9]: 216.88 ± 13.45 pg/mL
IL-1α concentration in media [4, 10]: 7.01 ± 0.39 pg/mL
IL-6 concentration in media [4, 10]: 710.89 ± 36.7 pg/mL
IP-10/CXCL10 concentration in media [4, 10]: 3665.2 ± 277.11 pg/mL
MIP1α concentration in media [4, 10]: 104.54 ± 6.56 pg/mL
RANTES concentration in media [4, 10]: 201.93 ± 15.44 pg/mL
IL-1α concentration in media [4, 11]: 7.27 ± 0.47 pg/mL
IL-6 concentration in media [4, 11]: 690.4 ± 35.25 pg/mL
IP-10/CXCL10 concentration in media [4, 11]: 3860.41 ± 323.05 pg/mL
MIP1α concentration in media [4, 11]: 96.4 ± 4.18 pg/mL
RANTES concentration in media [4, 11]: 207.79 ± 17.38 pg/mL
IL-1α concentration in media [4, 12]: 6.45 ± 0.38 pg/mL
IL-6 concentration in media [4, 12]: 621.79 ± 33.44 pg/mL
IP-10/CXCL10 concentration in media [4, 12]: 3835.78 ± 304.58 pg/mL
MIP1α concentration in media [4, 12]: 98.72 ± 3.87 pg/mL
RANTES concentration in media [4, 12]: 189.62 ± 13.78 pg/mL
IL-1α concentration in media ([4]; no stimulation, drug 200 nM): 0.30 ± 0.05 pg/mL
IL-6 concentration in media ([4]; no stimulation, drug 200 nM): 28.79 ± 2.91 pg/mL
IP-10/CXCL10 concentration in media ([4]; no stimulation, drug 200 nM): 20.23 ± 0.48 pg/mL
MIP1α concentration in media ([4]; no stimulation, drug 200 nM): 2.90 ± 0.21 pg/mL
RANTES concentration in media ([4]; no stimulation, drug 200 nM): 8.61 ± 0.52 pg/mL
